This experiment concerns the target T1, rPSTG (recombinant PSTG, STG-hydrolyzing β-glucosidase) (Paenibacillus relictisesami, UniProt D6RVX0).
T1 construct: full-length 753 aa, 83,298 Da, no signal peptide; expressed from pDEST17 in E. coli BL21-AI, HisTrap purified (tag cleavage not mentioned); likely tetramer, 310 kDa; GH3
T1 sequence (D6RVX0 1-753): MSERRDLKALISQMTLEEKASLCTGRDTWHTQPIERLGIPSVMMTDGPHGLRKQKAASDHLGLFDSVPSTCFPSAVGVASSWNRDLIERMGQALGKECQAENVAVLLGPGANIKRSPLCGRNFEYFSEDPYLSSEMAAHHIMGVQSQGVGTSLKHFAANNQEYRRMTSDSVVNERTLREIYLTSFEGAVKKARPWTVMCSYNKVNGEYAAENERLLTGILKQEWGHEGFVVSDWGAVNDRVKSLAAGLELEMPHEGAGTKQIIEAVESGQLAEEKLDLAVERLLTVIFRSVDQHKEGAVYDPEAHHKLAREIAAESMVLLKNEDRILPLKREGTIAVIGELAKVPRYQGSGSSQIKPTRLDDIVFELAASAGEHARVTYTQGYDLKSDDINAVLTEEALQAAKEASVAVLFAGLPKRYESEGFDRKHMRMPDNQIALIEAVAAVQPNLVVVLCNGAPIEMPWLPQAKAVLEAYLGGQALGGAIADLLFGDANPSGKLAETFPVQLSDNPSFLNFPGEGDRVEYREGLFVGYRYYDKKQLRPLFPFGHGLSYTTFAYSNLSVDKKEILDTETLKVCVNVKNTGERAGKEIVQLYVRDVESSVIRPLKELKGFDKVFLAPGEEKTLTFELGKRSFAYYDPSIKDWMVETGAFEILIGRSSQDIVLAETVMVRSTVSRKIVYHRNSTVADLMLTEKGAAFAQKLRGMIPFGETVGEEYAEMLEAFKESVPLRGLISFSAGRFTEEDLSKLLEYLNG
Put plainly: p-nitrophenol release, absorbance at […] nm. The settings on record: pH 7.0, 37°C, potassium phosphate. Type of experiment: biochemical.

For one compound, Km results are on record in paper PMC3622683, “Purification, Gene Cloning, and Biochemical Characterization of a β-Glucosidase Capable of Hydrolyzing Sesaminol Triglucoside from Paenibacillus sp. KB0549” (PLoS ONE, 2013).

Bounds are passed on as bounds.

As for `C[C@H]1O[C@@H](Oc2ccc([N+](=O)[O-])cc2)[C@H](O)[C@@H](O)[C@H]1O` [pNP-β-D-fucopyranoside], the Michaelis constant (Km) (in general, the substrate concentration at which the rate is half of its maximum) was greater than 10 mM.
